Test results published in ChEMBL document CHEMBL4765274, “The development of advanced structural framework as multi-target-directed ligands for the treatment of Alzheimer's disease” (Eur J Med Chem, 2020).
Calls of active or inactive are those of the source. The calls are words filed in the database; no cut-off is given here. Peptide text beside a SMILES is read from it. * marks the point of attachment. Cbz = O=C(OCc1ccccc1)*

Assays:
Acetylcholinesterase [1] = biological target: Acetylcholinesterase (Electrophorus electricus, UniProt O42275); experiment: Inhibition of electric eel AChE by Ellman's method
Cholinesterase [2] = biological target: Cholinesterase (Equus caballus, UniProt P81908); experiment: Inhibition of equine serum BChE by Ellman's method; type: cell-free
[3] = Selectivity index, ratio of IC50 for inhibition of equine serum BChE to IC50 for inhibition of electric eel AChE
Acetylcholinesterase [4] = biological target: T1, Acetylcholinesterase (Homo sapiens, UniProt P22303); experiment: Inhibition of AChE in human erythrocytes by Ellman's method; type: cell-based, Erythrocyte
Cholinesterase [5] = biological target: T2, Cholinesterase (Homo sapiens, UniProt P06276); experiment: Inhibition of human serum BChE by Ellman's method; type: cell-free
[6] = Antioxidant activity assessed as trolox equivalent of AAPH radical scavenging activity measured every min for 4 hrs by ORAC-FL assay relative to trolox; type: functional
[7] = biological target: Acetylcholinesterase (Electrophorus electricus) (UniProt O42275); experiment: Inhibition of electric eel AChE at 25 uM by Ellman's method relative to control
[8] = biological target: Cholinesterase (Equus caballus) (UniProt P81908); experiment: Inhibition of equine serum BChE at 25 uM by Ellman's method relative to control; type: cell-free
Acetylcholinesterase [9] = biological target: T1, Acetylcholinesterase; experiment: Inhibition of AChE in human erythrocytes at 25 uM by Ellman's method relative to control; type: cell-based; conditions: Erythrocyte
Cholinesterase [10] = biological target: T2, Cholinesterase; experiment: Inhibition of human serum BChE at 25 uM by Ellman's method relative to control; type: cell-free
[11] = Effective permeability of compound at 100 ug/m by PAMPA-BBB assay; type: ADME; conditions: read-out: Peff
Cholinesterase [12] = biological target: T2, Cholinesterase; experiment: Inhibition of human serum BChE by Ellman's method relative to control; type: cell-free; set-up: concentration or dose not given beside the values; conditions: concentration not given here
HT-22 [13] = experiment: Inhibition of ubiquitin-proteasome system in mouse HT-22 cells expressing YFP-CLI assessed as increase in GFP level at 0.5 uM after 24 hrs by flow cytometric analysis; type: cell-based
HT-22 [14] = experiment: Inhibition of ubiquitin-proteasome system in mouse HT-22 cells expressing YFP-CLI assessed as increase in GFP level at 0.5 uM after 24 hrs by fluorescence microscopic method; type: cell-based
Homo sapiens = organism: Homo sapiens; experiment: Inhibition of self-induced amyloid beta (1 to 42 residues) (unknown origin) aggregation at 25 uM by thioflavin T based fluorescence assay relative to control
[15] = Inhibition of Cu2+-induced amyloid beta (1 to 42 residues) (unknown origin) aggregation at 25 uM after 24 hrs by thioflavin-T fluorescence method relative to control
[16] = Disaggregation of Cu2+ induced amyloid beta (1 to 42 residues) (unknown origin) aggregation at 25 uM by thioflavin-T fluorescence method relative to control
[17] = Inhibition of self-induced amyloid beta (1 to 42 residues) (unknown origin) aggregation by thioflavin T based fluorescence assay; set-up: species or system Homo sapiens; conditions: read-out: IC50
PC-12 [18] = experiment: Cytotoxicity against rat PC-12 cells assessed as reduction in cell viability up to 100 uM after 48 hrs by MTT assay; type: cell-based; conditions: pc-12, 48 h
PC-12 [19] = experiment: Neuroprotective activity against H2O2-induced cytotoxicity in rat PC-12 cells assessed as increase in cell viability preincubated for 2 hrs followed by H2O2 addition and measured after 24 hrs by MTT assay; type: functional, cell-based; conditions: dose 1-10 µM, time 26.0 hrs
PC-12 [20] = experiment: Neuroprotective activity against H2O2-induced cytotoxicity in rat PC-12 cells assessed as decrease in LDH activity at 1 to 10 uM preincubated for 2 hrs followed by H2O2 addition and measured after 24 hrs by LDH assay; type: functional, cell-based; conditions: dose 1-10 µM, time 26.0 hrs
SH-SY5Y [21] = experiment: Cytotoxicity against human SH-SY5Y cells assessed as cell viability up to 100 uM after 48 hrs by MTT assay relative to control; type: cell-based
SH-SY5Y [22] = experiment: Neuroprotective activity against amyloid beta (1 to 42 residues)-induced cytotoxicity in human SH-SY5Y cells assessed as increase in cell viability at 1 to 10 uM incubated for 48 hrs by MTT assay; type: functional, cell-based; conditions: dose 1-10 µM

Sequence of Cholinesterase (Equus caballus) (P81908 whole entry): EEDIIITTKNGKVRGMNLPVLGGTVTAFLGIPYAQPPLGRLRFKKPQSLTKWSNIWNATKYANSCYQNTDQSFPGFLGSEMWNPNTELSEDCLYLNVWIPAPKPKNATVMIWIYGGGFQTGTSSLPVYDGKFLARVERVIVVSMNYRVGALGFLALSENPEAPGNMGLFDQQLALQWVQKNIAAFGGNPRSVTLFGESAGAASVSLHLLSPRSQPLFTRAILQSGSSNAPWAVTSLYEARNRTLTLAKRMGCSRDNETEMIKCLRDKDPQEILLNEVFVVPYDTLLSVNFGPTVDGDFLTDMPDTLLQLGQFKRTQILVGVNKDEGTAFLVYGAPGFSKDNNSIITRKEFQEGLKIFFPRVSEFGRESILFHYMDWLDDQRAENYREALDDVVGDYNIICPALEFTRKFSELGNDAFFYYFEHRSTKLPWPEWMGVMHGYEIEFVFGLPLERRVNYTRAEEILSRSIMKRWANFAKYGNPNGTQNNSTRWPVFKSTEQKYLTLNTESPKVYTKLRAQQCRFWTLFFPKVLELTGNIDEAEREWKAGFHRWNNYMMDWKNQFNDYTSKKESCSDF
Sequence of Cholinesterase (Equus caballus, UniProt P81908) (P81908 whole entry): as above
T2 sequence (P06276 whole entry): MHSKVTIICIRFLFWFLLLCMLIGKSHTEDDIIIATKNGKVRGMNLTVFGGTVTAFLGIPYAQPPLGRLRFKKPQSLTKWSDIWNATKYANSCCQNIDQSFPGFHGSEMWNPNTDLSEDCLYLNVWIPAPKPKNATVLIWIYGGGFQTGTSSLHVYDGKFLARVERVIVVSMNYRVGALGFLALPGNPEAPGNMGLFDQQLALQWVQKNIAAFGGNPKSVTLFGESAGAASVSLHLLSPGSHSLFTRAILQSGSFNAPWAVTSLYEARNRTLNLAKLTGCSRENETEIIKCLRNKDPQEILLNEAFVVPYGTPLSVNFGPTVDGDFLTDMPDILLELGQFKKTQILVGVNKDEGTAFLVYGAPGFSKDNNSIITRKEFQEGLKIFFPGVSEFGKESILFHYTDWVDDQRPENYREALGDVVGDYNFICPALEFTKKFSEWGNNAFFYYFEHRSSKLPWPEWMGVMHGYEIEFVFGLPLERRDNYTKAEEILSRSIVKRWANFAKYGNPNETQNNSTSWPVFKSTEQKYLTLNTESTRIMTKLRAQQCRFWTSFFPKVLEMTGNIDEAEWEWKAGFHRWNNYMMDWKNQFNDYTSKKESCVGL
Sequence of Acetylcholinesterase (Electrophorus electricus, UniProt O42275) (O42275 whole entry): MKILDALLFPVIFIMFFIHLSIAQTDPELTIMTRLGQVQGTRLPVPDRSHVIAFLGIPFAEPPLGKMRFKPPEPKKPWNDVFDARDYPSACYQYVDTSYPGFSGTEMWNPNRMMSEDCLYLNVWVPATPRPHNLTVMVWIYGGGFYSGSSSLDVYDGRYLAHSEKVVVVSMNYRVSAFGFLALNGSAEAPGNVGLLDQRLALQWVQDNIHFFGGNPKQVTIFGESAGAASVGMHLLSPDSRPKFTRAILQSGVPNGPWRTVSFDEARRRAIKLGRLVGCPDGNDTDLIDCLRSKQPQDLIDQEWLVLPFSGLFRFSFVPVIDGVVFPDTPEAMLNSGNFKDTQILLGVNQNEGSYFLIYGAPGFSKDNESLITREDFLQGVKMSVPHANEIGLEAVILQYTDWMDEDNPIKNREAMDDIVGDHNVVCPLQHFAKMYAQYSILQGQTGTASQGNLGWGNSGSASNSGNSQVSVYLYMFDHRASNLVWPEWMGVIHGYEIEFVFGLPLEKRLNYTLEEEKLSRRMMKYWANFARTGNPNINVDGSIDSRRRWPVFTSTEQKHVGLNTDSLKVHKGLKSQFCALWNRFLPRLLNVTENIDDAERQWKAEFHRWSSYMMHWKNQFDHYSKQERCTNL
Sequence of Acetylcholinesterase (Electrophorus electricus) (O42275 24-633 limits assumed): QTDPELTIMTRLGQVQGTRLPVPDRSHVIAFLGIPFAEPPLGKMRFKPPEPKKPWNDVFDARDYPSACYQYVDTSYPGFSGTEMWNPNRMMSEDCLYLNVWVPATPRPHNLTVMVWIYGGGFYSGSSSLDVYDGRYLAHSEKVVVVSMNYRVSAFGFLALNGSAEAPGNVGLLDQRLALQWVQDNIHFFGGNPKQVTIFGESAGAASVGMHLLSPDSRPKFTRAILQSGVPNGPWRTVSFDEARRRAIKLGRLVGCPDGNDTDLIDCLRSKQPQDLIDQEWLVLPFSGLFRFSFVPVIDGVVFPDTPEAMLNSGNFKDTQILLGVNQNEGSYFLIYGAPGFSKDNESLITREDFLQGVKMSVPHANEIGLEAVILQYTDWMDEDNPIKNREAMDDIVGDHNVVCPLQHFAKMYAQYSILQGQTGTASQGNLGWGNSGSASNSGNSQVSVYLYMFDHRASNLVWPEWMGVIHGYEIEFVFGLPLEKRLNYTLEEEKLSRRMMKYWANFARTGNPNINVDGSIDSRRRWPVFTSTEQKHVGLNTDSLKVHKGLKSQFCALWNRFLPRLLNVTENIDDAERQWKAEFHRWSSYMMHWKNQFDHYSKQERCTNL
T1 sequence (P22303 whole entry): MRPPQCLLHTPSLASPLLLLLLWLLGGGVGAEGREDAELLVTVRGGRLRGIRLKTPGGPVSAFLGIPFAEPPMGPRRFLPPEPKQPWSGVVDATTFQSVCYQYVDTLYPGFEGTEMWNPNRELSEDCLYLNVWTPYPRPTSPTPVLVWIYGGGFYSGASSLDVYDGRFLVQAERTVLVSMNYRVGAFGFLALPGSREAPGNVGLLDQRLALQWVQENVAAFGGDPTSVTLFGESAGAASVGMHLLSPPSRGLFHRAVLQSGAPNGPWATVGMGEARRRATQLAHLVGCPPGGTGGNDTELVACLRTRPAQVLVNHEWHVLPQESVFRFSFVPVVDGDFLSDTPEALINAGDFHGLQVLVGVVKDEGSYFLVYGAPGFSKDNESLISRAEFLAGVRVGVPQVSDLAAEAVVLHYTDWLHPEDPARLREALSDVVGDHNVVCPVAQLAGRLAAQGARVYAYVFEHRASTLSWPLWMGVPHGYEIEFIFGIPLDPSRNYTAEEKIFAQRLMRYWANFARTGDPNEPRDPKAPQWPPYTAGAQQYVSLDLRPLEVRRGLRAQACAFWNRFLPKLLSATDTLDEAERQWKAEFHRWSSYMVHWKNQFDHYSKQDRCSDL

Structure (SMILES) | IC50 (Acetylcholinesterase [1]) | IC50 (Cholinesterase [2]) | Ratio IC50 [3] | IC50 (Acetylcholinesterase [4]) | IC50 (Cholinesterase [5]) | fold change (FC) [6] | other results
O=c1cc(-c2ccc(OCCCCN3CCC(Cc4ccccc4)CC3)cc2)oc2cc(OCCCCN3CCC(Cc4ccccc4)CC3)cc(O)c12 | 10.8 µM | 19.7 µM | 1.8 | 0.67 µM | 12.9 µM | 1.1 | –
O=C1CC(c2ccc(OCCCCN3CCC(Cc4ccccc4)CC3)cc2)Oc2cc(OCCCCN3CCC(Cc4ccccc4)CC3)cc(O)c21 (stereo not drawn) | 8.1 µM | 7.5 µM | 0.93 | 7.6 µM | 18.7 µM | 0.98 | –
O=C(C=Cc1ccccc1)c1ccccc1 | – | – | – | – | – | 2.6 | inhibition [7]: < 5%; inhibition [8]: < 5%; inhibition (Acetylcholinesterase [9]): < 5%; inhibition (Cholinesterase [10]): < 5%
O=C(/C=C/c1ccc(OCCCCN2CCC(Cc3ccccc3)CC2)cc1)c1c(O)cc(OCCCCN2CCC(Cc3ccccc3)CC2)cc1O | 16.3 µM | 46.1 µM | 2.8 | 11.9 µM | 9.4 µM | 1.1 | –
O=c1cc(-c2ccc(O)cc2)oc2cc(O)cc(O)c12 [APIGENIN] | – | – | – | – | – | 6.1 | inhibition [7]: < 5%; inhibition [8]: < 5%; inhibition (Acetylcholinesterase [9]): < 5%; inhibition (Cholinesterase [10]): < 5%; Papp at 100 ug/m [11]: 157 nm/s
O=C1CC(c2ccc(OCCCCN3CCc4ccccc4C3)cc2)Oc2cc(OCCCCN3CCc4ccccc4C3)cc(O)c21 (stereo not drawn) | 16.8 µM | – | – | 13.2 µM | 20.1 µM | 1.2 | inhibition (Cholinesterase [12]): 8.8%
CC(C)C[C@@H](C=O)NC(=O)[C@H](CC(C)C)NC(=O)[C@H](CC(C)C)NC(=O)OCc1ccccc1 (Cbz-Leu-Leu-Leu-aldehyde) | – | – | – | – | – | – | inhibition (HT-22 [13]): Active; inhibition (HT-22 [14]): Active
O=c1c(-c2ccc(O)cc2)coc2cc(O)cc(O)c12 | – | – | – | – | – | 5.1 | inhibition [8]: < 5%; inhibition (Cholinesterase [10]): < 5%
COc1cc(/C=C/C(=O)CC(=O)/C=C/c2ccc(O)c(OC)c2)ccc1O | – | – | – | – | – | – | inhibition (Homo sapiens): 43.7%; inhibition [15]: 53.6%; Activity [16]: 56.1%
O=C1C[C@@H](c2ccc(O)cc2)Oc2cc(O)cc(O)c21 | – | – | – | – | – | 5.5 | inhibition [7]: < 5%; inhibition [8]: < 5%; inhibition (Acetylcholinesterase [9]): < 5%; inhibition (Cholinesterase [10]): < 5%
CCN(CCCCOc1ccc(-c2coc3cc(OCCCCN(CC)Cc4ccccc4)cc(O)c3c2=O)cc1)Cc1ccccc1 | 2.3 µM | – | – | 2.1 µM | 18.2 µM | 1.4 | inhibition (Cholinesterase [12]): 12%
O=c1c(-c2ccc(OCCCCN3CCc4ccccc4C3)cc2)coc2cc(OCCCCN3CCc4ccccc4C3)cc(O)c12 | 13.5 µM | 52.6 µM | 3.9 | 8.1 µM | 13.7 µM | 1.1 | –
O=c1c(-c2ccc(OCCCCN3CCN(Cc4ccccc4)CC3)cc2)coc2cc(OCCCCN3CCN(Cc4ccccc4)CC3)cc(O)c12 | 19.8 µM | – | – | 25.1 µM | 26.4 µM | 1.8 | inhibition (Cholinesterase [12]): 5.8%
O=c1cc(-c2ccc(OCCCCN3CCc4ccccc4C3)cc2)oc2cc(OCCCCN3CCc4ccccc4C3)cc(O)c12 | 18.2 µM | 17.5 µM | 0.96 | 0.59 µM | 15.8 µM | 1.3 | –
O=c1c(-c2ccc(OCCCCN3CCC(Cc4ccccc4)CC3)cc2)coc2cc(OCCCCN3CCC(Cc4ccccc4)CC3)cc(O)c12 | 7.2 µM | 31.8 µM | 4.4 | 7.3 µM | 11.9 µM | 1.2 | –
O=c1c(-c2ccc(OCCCCN3CCCCC3)cc2)coc2cc(OCCCCN3CCCCC3)cc(O)c12 | 0.52 µM | 2.2 µM | 4.2 | 0.81 µM | 19.6 µM | 1.2 | IC50 [17]: 19.6 µM; Activity (PC-12 [18]): Non-Toxic; Activity (PC-12 [19]): Dose-dependent effect; Activity (PC-12 [20]): Active; Activity (SH-SY5Y [21]): Non-Toxic; Activity (SH-SY5Y [22]): Active
O=C(/C=C/c1ccc(OCCCCN2CCCCC2)cc1)c1c(O)cc(OCCCCN2CCCCC2)cc1O | 3.52 µM | 7.2 µM | 2 | 5.1 µM | 3.7 µM | 1.1 | –
O=C(/C=C/c1ccc(OCCCCN2CCCC2)cc1)c1c(O)cc(OCCCCN2CCCC2)cc1O | 5.71 µM | 8.19 µM | 1.4 | 3.2 µM | 1.8 µM | 0.93 | –
CCN(CCCCOc1ccc(C2CC(=O)c3c(O)cc(OCCCCN(CC)Cc4ccccc4OC)cc3O2)cc1)Cc1ccccc1OC (stereo not drawn) | 5.3 µM | 21.9 µM | 4.1 | 4.3 µM | 15.6 µM | 1.3 | IC50 [17]: 30.9 µM; Activity (PC-12 [18]): Non-Toxic; Activity (PC-12 [19]): Dose-dependent effect; Activity (PC-12 [20]): Active; Activity (SH-SY5Y [21]): Non-Toxic; Activity (SH-SY5Y [22]): Active
CC1c2ccccc2CCN1CCCCOc1ccc(-c2coc3cc(OCCCCN4CCc5ccccc5C4C)cc(O)c3c2=O)cc1 (stereo not drawn) | 1.8 µM | – | – | 5.3 µM | 12.4 µM | 1.3 | inhibition (Cholinesterase [12]): 19%
O=c1cc(-c2ccc(OCCCCN3CCN(Cc4ccccc4)CC3)cc2)oc2cc(OCCCCN3CCN(Cc4ccccc4)CC3)cc(O)c12 | 26.8 µM | 37.5 µM | 1.4 | 1 µM | 10.7 µM | 1.8 | –
CCN(CC)CCCCOc1ccc(/C=C/C(=O)c2c(O)cc(OCCCCN(CC)CC)cc2O)cc1 | 6.24 µM | 30.8 µM | 4.9 | 4.7 µM | 8.3 µM | 0.9 | –
O=C1CC(c2ccc(OCCCCN3CCN(Cc4ccccc4)CC3)cc2)Oc2cc(OCCCCN3CCN(Cc4ccccc4)CC3)cc(O)c21 (stereo not drawn) | 11.6 µM | – | – | 18.7 µM | 21.4 µM | 1.7 | inhibition (Cholinesterase [12]): 12.2%
